According to patent US4784944A, “Prothrombin time determining reagent and methods of using and preparing the same” (Behringwerke Aktiengesellschaft, priority 1984, dated 1988):
One block for each compound: values may come before it. Starred links: 1 amine or outer side, 2 acyl side, 3 side chain; linkers in the order of their positions; H or OH if unused. Non-standard residues stand in square brackets, D forms with d. Residues, ends and D or L forms follow the SMILES beside them. *: point of attachment. Benzoyl(5-NH,2-NO2) = O=C(c1cc(N[*:1])ccc1[N+](=O)[O-])[*:2]; pNA = O=[N+]([O-])c1ccc(N*)cc1; Tos = Cc1ccc(S(=O)(=O)*)cc1

What was measured:
Assay type in all cases: biochemical
[1] = system: Thromboplastin D; experiment: Hydrolysis of chromogenic substrates by thromboplastin D; details: Thromboplastin D 5%; substrate 50 μmol/l; after 92 hours at room temperature; 405 nm
Method: (§1) Difference in extinction after 92 hours at room temperature of a reagent prepared according to Example 1. The substrate concentration was 50 μmol/l, and the thromboplastins were dissolved in accordance with the statements of the manufacturer and added at a concentration of 5%.
(§2) 4 to 20 ml of human thromboplastin were added to 70 ml of an aqueous solution containing 5.844 g of NaCl, 1.47 g of CaCl2, 11.92 g of HEPES, 250 μg of polybrene® and 67.1 mg of H-D-Phe-Pro-Arg-ANBA-isopropylamide HCl in one liter, pH 7.6, and the mixture was freeze-dried.

[2] = system: Thromboplastin C; experiment: Hydrolysis of chromogenic substrates by thromboplastin C; details: Thromboplastin C 5%; substrate 50 μmol/l; after 92 hours at room temperature; 405 nm
Method: as §1, §2

[3] = system: Thromboplastin F; experiment: Hydrolysis of chromogenic substrates by thromboplastin F; details: Thromboplastin F 5%; substrate 50 μmol/l; after 92 hours at room temperature; 405 nm
Method: as §1, §2

[4] = system: Thromboplastin A; experiment: Hydrolysis of chromogenic substrates by thromboplastin A; details: Thromboplastin A 5%; substrate 50 μmol/l; after 92 hours at room temperature; 405 nm
Method: as §1, §2

[5] = system: Thromboplastin G; experiment: Hydrolysis of chromogenic substrates by thromboplastin G; details: Thromboplastin G 5%; substrate 50 μmol/l; after 92 hours at room temperature; 405 nm
Method: as §1, §2

[6] = system: Thromboplastin E; experiment: Hydrolysis of chromogenic substrates by thromboplastin E; details: Thromboplastin E 5%; substrate 50 μmol/l; after 92 hours at room temperature; 405 nm
Method: as §1, §2

[7] = system: Thromboplastin B; experiment: Hydrolysis of chromogenic substrates by thromboplastin B; details: Thromboplastin B 5%; substrate 50 μmol/l; after 92 hours at room temperature; 405 nm
Method: as §1, §2

[8] = system: thromboplastins of the state of the art; experiment: Hydrolysis of chromogenic substrates by thromboplastins; details: for Stability of a reagent containing the substrate (in words): reagent with thromboplastin having proteolytic activity
Method: The substrate concentration was 50 μmol/l, and the thromboplastins were dissolved in accordance with the statements of the manufacturer and added at a concentration of 5%.

Compound: CCOC(=O)CNC(=O)c1cc(NC(=O)[C@H](CCCNC(=N)N)NC(=O)[C@@H]2CCCN2C(=O)[C@H](N)Cc2ccccc2)ccc1[N+](=O)[O-] [D-Phe-Pro-Arg-ANBA-Glycine ethyl ester] (H-[dF]PR[Benzoyl(5-NH,2-NO2)]G-OEt)
Difference in extinction (hydrolysis of chromogenic substrate) [1]: 0,019 | Difference in extinction (hydrolysis of chromogenic substrate) [2]: 0,015 | Difference in extinction (hydrolysis of chromogenic substrate) [3]: 0,011 | Difference in extinction (hydrolysis of chromogenic substrate) [4]: 0,007 | Difference in extinction (hydrolysis of chromogenic substrate) [5]: 0,003 | Difference in extinction (hydrolysis of chromogenic substrate) [6]: 0,008 | Difference in extinction (hydrolysis of chromogenic substrate) [7]: 0,009

Stability of a reagent containing the substrate (in words) [8]: stable for a considerably longer time
Compound: CC(C)NC(=O)c1cc(NC(=O)[C@H](CCCNC(=N)N)NC(=O)[C@@H]2CCCN2C(=O)[C@H](N)Cc2ccccc2)ccc1[N+](=O)[O-] [D-Phe-Pro-Arg-ANBA-isopropylamide, H-D-Phe-Pro-Arg-ANBA-isopropylamide]
Difference in extinction (hydrolysis of chromogenic substrate) [1]: 0,013 | Difference in extinction (hydrolysis of chromogenic substrate) [2]: 0,010 | Difference in extinction (hydrolysis of chromogenic substrate) [3]: 0 | Difference in extinction (hydrolysis of chromogenic substrate) [4]: 0,006 | Difference in extinction (hydrolysis of chromogenic substrate) [5]: 0 | Difference in extinction (hydrolysis of chromogenic substrate) [6]: 0,011 | Difference in extinction (hydrolysis of chromogenic substrate) [7]: 0,016

Compound: CCCCNC(=O)c1cc(NC(=O)[C@H](CCCNC(=N)N)NC(=O)[C@@H]2CCCN2C(=O)[C@H](N)Cc2ccccc2)ccc1[N+](=O)[O-] [D-Phe-Pro-Arg-ANBA-n-Butylamide]
Difference in extinction (hydrolysis of chromogenic substrate) [1]: 0,013 | Difference in extinction (hydrolysis of chromogenic substrate) [2]: 0,019 | Difference in extinction (hydrolysis of chromogenic substrate) [3]: 0,023 | Difference in extinction (hydrolysis of chromogenic substrate) [4]: 0,021 | Difference in extinction (hydrolysis of chromogenic substrate) [5]: 0,012 | Difference in extinction (hydrolysis of chromogenic substrate) [6]: 0,030 | Difference in extinction (hydrolysis of chromogenic substrate) [7]: 0,023

Compound: CC(C)(C)CNC(=O)c1cc(NC(=O)[C@H](CCCNC(=N)N)NC(=O)[C@@H]2CCCN2C(=O)[C@H](N)Cc2ccccc2)ccc1[N+](=O)[O-] [D-Phe-Pro-Arg-ANBA-neopentylamide]
Difference in extinction (hydrolysis of chromogenic substrate) [1]: 0,007 | Difference in extinction (hydrolysis of chromogenic substrate) [2]: 0,011 | Difference in extinction (hydrolysis of chromogenic substrate) [3]: 0,003 | Difference in extinction (hydrolysis of chromogenic substrate) [4]: 0,003 | Difference in extinction (hydrolysis of chromogenic substrate) [5]: 0,002 | Difference in extinction (hydrolysis of chromogenic substrate) [6]: 0,014 | Difference in extinction (hydrolysis of chromogenic substrate) [7]: 0,009

Compound: CC(C)C[C@H](N)C(=O)Nc1ccc([N+](=O)[O-])cc1 [Leu-pNA, reference compound]
Difference in extinction (hydrolysis of chromogenic substrate) [1]: 0,593 | Difference in extinction (hydrolysis of chromogenic substrate) [2]: 0,721 | Difference in extinction (hydrolysis of chromogenic substrate) [3]: 0,536 | Difference in extinction (hydrolysis of chromogenic substrate) [4]: 0,974 | Difference in extinction (hydrolysis of chromogenic substrate) [5]: 1,124 | Difference in extinction (hydrolysis of chromogenic substrate) [6]: 0,871 | Difference in extinction (hydrolysis of chromogenic substrate) [7]: 0,681

Compound: NCCCC[C@H](NC(=O)c1ccccc1)C(=O)Nc1ccc([N+](=O)[O-])cc1 [N-α-Benzoyl-L-Lysine-pNA, reference compound]
Difference in extinction (hydrolysis of chromogenic substrate) [1]: 0,402 | Difference in extinction (hydrolysis of chromogenic substrate) [2]: 0,433 | Difference in extinction (hydrolysis of chromogenic substrate) [3]: 0,198 | Difference in extinction (hydrolysis of chromogenic substrate) [4]: 0,319 | Difference in extinction (hydrolysis of chromogenic substrate) [5]: 0,503 | Difference in extinction (hydrolysis of chromogenic substrate) [6]: 0,372 | Difference in extinction (hydrolysis of chromogenic substrate) [7]: 0,525

Compound: C[C@H](NC(=O)CCC(=O)O)C(=O)N[C@@H](C)C(=O)N[C@@H](C)C(=O)Nc1ccc([N+](=O)[O-])cc1 [Suc-(Ala)3-pNA, reference compound]
Difference in extinction (hydrolysis of chromogenic substrate) [1]: 0,411 | Difference in extinction (hydrolysis of chromogenic substrate) [2]: 0,248 | Difference in extinction (hydrolysis of chromogenic substrate) [3]: 0,310 | Difference in extinction (hydrolysis of chromogenic substrate) [4]: 0,211 | Difference in extinction (hydrolysis of chromogenic substrate) [5]: 0,202 | Difference in extinction (hydrolysis of chromogenic substrate) [6]: 0,178 | Difference in extinction (hydrolysis of chromogenic substrate) [7]: 0,324

Compound: CCOC(=O)CNC(=O)c1cc(NC(=O)[C@H](CCCNC(=N)N)NC(=O)[C@@H]2CCCN2C(=O)CNS(=O)(=O)c2ccc(C)cc2)ccc1[N+](=O)[O-] [Tos-Gly-Pro-Arg-ANBA-Glycine ethyl ester] (Tos-GPR[Benzoyl(5-NH,2-NO2)]G-OEt)
Difference in extinction (hydrolysis of chromogenic substrate) [1]: 0,026 | Difference in extinction (hydrolysis of chromogenic substrate) [2]: 0,028 | Difference in extinction (hydrolysis of chromogenic substrate) [3]: 0,023 | Difference in extinction (hydrolysis of chromogenic substrate) [4]: 0,029 | Difference in extinction (hydrolysis of chromogenic substrate) [5]: 0,029 | Difference in extinction (hydrolysis of chromogenic substrate) [6]: 0,037 | Difference in extinction (hydrolysis of chromogenic substrate) [7]: 0,034

Compound: Cc1ccc(S(=O)(=O)NCC(=O)N2CCC[C@H]2C(=O)N[C@@H](CCCNC(=N)N)C(=O)Nc2ccc([N+](=O)[O-])c(C(=O)NC(C)C)c2)cc1 [Tos-Gly-Pro-Arg-ANBA-isopropylamide]
Difference in extinction (hydrolysis of chromogenic substrate) [1]: 0,023 | Difference in extinction (hydrolysis of chromogenic substrate) [2]: 0,030 | Difference in extinction (hydrolysis of chromogenic substrate) [3]: 0,029 | Difference in extinction (hydrolysis of chromogenic substrate) [4]: 0,035 | Difference in extinction (hydrolysis of chromogenic substrate) [5]: 0,018 | Difference in extinction (hydrolysis of chromogenic substrate) [6]: 0,041 | Difference in extinction (hydrolysis of chromogenic substrate) [7]: 0,039

Compound: Cc1ccc(S(=O)(=O)NCC(=O)N2CCC[C@H]2C(=O)N[C@@H](CCCNC(=N)N)C(=O)Nc2ccc([N+](=O)[O-])cc2)cc1 [Tos-Gly-Pro-Arg-pNA, reference compound] (Tos-Gly-Pro-Arg-pNA)
Difference in extinction (hydrolysis of chromogenic substrate) [1]: 0,137 | Difference in extinction (hydrolysis of chromogenic substrate) [2]: 0,115 | Extent of hydrolysis by the thromboplastins (in words) ([8]; extinction at 405 nm, Table 1): rapid consumption of the substrate | Stability of a reagent containing the substrate (in words) [8]: stable for only a very short time | Difference in extinction (hydrolysis of chromogenic substrate) [3]: 0,116 | Difference in extinction (hydrolysis of chromogenic substrate) [4]: 0,190 | Difference in extinction (hydrolysis of chromogenic substrate) [5]: 0,149 | Difference in extinction (hydrolysis of chromogenic substrate) [6]: 0,123 | Difference in extinction (hydrolysis of chromogenic substrate) [7]: 0,143

Compound: D-Phe-Pro-Arg-ANBA-Valine methyl ester
Difference in extinction (hydrolysis of chromogenic substrate) [1]: 0,020 | Difference in extinction (hydrolysis of chromogenic substrate) [2]: 0,008 | Difference in extinction (hydrolysis of chromogenic substrate) [3]: 0 | Difference in extinction (hydrolysis of chromogenic substrate) [4]: 0,003 | Difference in extinction (hydrolysis of chromogenic substrate) [5]: 0,002 | Difference in extinction (hydrolysis of chromogenic substrate) [6]: 0 | Difference in extinction (hydrolysis of chromogenic substrate) [7]: 0,031
